Marks after values point to notes of the source that are not given here.
Experiments:
Assay type in all cases: cell-based
eIF4E = eIF4E inhibitor screen: luciferase under FGF 5′UTR in FaDu cells (highly cap-dependent translation); conditions: for inhibition of highly cap-dependent translation (summary statement): summary in the disclosure
Description: Since highly cap-dependent translation is associated with synthesis of proteins involved in cancer, a compound that inhibits this pathway may be used as an anti-cancer agent. The assay was developed by cloning the highly structured 5′ UTR of FGF, which requires high levels of eIF4E before protein synthesis can initiate, into the proper orientation of the reporter gene luciferase, and then stably transfecting the modified luciferase gene into the cell line FaDu that is known to have high levels of eIF4E. The activity of luciferase is then monitored in the presence and absence of the tested compound.
Generation of Stable Cell Lines: The pMS110 plasmid (pGL3-control plasmid from Promega which contains a neo selectable marker) was used to generate pMS110-5′UTR by cloning the 5′ UTR of FGF just upstream of the luciferase AUG start codon. FaDu cells, a head and neck cancer cell line, were transfected using Lipofectamine2000 (Invitrogen). Twenty-four hours after transfection G418 was added at 500 μg/ml. Cells were maintained in G418 for 14 days, and then individual colonies were transferred to a 96-well plate for propagation. Individual clones were analyzed for luciferase expression by plating 10^4 cells per well in a 96-well plate for 24 hours before lysing the cells and analyzing for luciferase activity in a Victor III (Perkin Elmer) or Lucy2 (Rosys Anthos). FaDu9000 and FaDuUTR were the clones that expressed the highest level of active luciferase following transfection of pMS110 and pMS110-5′UTR, respectively.
Analysis of Rapamycin Responsiveness: Cells of FaDu9000 and FaDuUTR were plated at 1×10^4 cells/well in a 96-well dish. Twenty-four hours after plating, 0.1% DMSO (vehicle control) or 10 nM rapamycin were added to each well, and the cells were maintained for an additional 24 or 48 hours. The cells were then lysed and luciferase activity was determined using BriteGlo (Promega) as per manufacturer's instruction and recorded using the Victor III. Following subtraction of background activity, the mean value of quadruplicate samples for a given experiment was determined, and the treated cells were normalized to the control. At least four separate experiments were conducted, and the mean and standard error were calculated. To determine if rapamycin affected cell viability, an MTS assay (Cell Proliferation One Solution, Promega) was carried out on each population at 48 hours in two separate experiments.
The FaDu cell line stably transfected with FGF 5′UTR was used to screen thirty-nine representative compounds, each at a concentration of 1.0 μM. Additional cells were treated with vehicle, 0.3% DMSO. Cells were plated for twenty-four hours in a 96-well plate. Each compound was then added to triplicate wells, and the cells were incubated for forty-eight hours before measuring luciferase activity as above. The mean luciferase activity was measured using Promega's Brite-Glo kit, and the mean for each sample was normalized to DMSO. The experiment was then repeated, and the average and standard deviation of the two experiments were determined (FIG. 8).

NF-κB = assay: TNF-α-induced NF-κB-dependent luciferase expression in HEK cells; design: NF-κB % inhibition: concentration or dose not given beside the values
AP-1 = assay: PMA-induced AP-1 luciferase expression in HEK cells
[1] = MTT viability in skin cell line pair, tumorigenic and non-tumorigenic; conditions: human
Experimental: (§1) Additional compounds have also been tested for their ability to inhibit both TNF-α-induced NF-κB—expression and PMA-induced AP-1 expression. In both tests, the compound was added for 1 h, then the appropriate inducer was added, and luciferase activity was monitored 24 h later. Values were then normalized to the vehicle control, DMSO. Following the initial luciferase screens, studies were conducted to assess the cytotoxicity of the compounds in normal cells such as VSMC, HUVEC, or HPT cells. Human umbilical vein endothelial cells (HUVEC) represent the normal endothelium, vascular smooth muscle cells (VSMC) were represented by cells from the adult rat aorta, and human proximal tubule (HPT) cells represent the normal proximal tubule in vivo. These cells were grown to near confluency in multi-well plates, and were then treated for 48 h with either vehicle (0.1% DMSO) or 10 μM of each drug candidate. Following treatment, the media from the VSMC and HUVEC incubations were removed, and the amount of lactate dehydrogenase (LDH) released into the medium was determined with a commercial kit. LDH is normally confined to the cytosol, and its release represents “leakiness” of the plasma membrane. LDH activity was expressed as % increase over vehicle-treated cells. In another assay of viability, the treated VSMC and HUVEC were removed by trypsinization and treated with trypan blue, a dye that is taken up only by dead cells. The number of both live and dead cells was counted using an automated cell viability analyzer. The % decrease in numbers of viable cells was determined. Toxicity in the treated HPT cells was determined by the ethidium homodimer (EthHD) uptake assay. EthHD is a fluorescent dye that is excluded from live cells, but is taken up by cells that have lost permeability barriers. Inside the cell, EthHD produces a strong fluorescent signal, which is proportional to the number of dead cells. Results were expressed as a % increase in cell death over vehicle-treated cells. The lead compounds were also tested in two pairs of cell lines from either the skin or prostate, one tumorigenic and one non-tumorigenic, to test for any differences in toxicity or heightened sensitivity in the tumorigenic lines. The cells were treated for 48 h with vehicle (0.1% DMSO) or 10 μM of each drug candidate. Following treatment, the viability of the cells was determined by the MTT assay. In this assay, the MTT dye is converted only in viable cells by intracellular enzymes to a colorimetric product that is quantitated by a microplate reader.
For the results in Table 13, cells were grown to near confluency in multi-well plates, then treated for 48 h with either vehicle (0.1% DMSO) or 10 μM of each drug candidate. Following treatment, the media from the VSMC and HUVEC incubations were removed, and the amount of lactate dehydrogenase (LDH) released into the medium was determined with a commercial kit and expressed as a % increase over vehicle-treated cells. HPT toxicity was determined by the ethidium homodimer (EthHD) uptake assay. Inside the cell, EthHD produces a strong fluorescent signal, which is proportional to the amount of cell death, expressed as a % increase in cell death over vehicle-treated cells. The lead compounds were also tested in two pairs of cell lines from the skin or prostate, one tumorigenic and one non-tumorigenic, to test for differing toxicity or heightened sensitivity in the tumorigenic lines. The cells were treated for 48 h with vehicle (0.1% DMSO) or 10 μM of each drug candidate, and the viability of the cells was determined by the MTT assay, expressed as a % decrease in viability compared to vehicle-treated cells. The in vivo inflammation model measured the % inhibition of rat paw edema induced by carageenan injection.

[2] = system: vascular smooth muscle cells (VSMC); assay: Trypan blue viability count in VSMC; conditions: rat, 48 h, 10 μM
Experimental: as §1

IC50 (NF-κB; 20 ng/ml TNF-α, 24 hr (FIG. 15), read-out: IC50, TNF-α induced NF-κB gene expression)	Compound	inhibition of highly cap-dependent translation (summary statement) (eIF4E)	NF-κB % inhibition (NF-κB; TNF-α-induced, compound added 1 h before inducer, luciferase 24 h later, normalized to DMSO vehicle)	AP-1 % inhibition (AP-1; PMA-induced, compound added 1 h before inducer, luciferase 24 h later, normalized to DMSO vehicle)	cytotoxicity at 48 h, 10 μM ([1]; Viability (MTT) % Decrease HaCaT)	cytotoxicity at 48 h, 10 μM ([1]; Viability (MTT) % Decrease SRB12-p9)	Viable Cells % Decrease VSMC [2]	NFkB inhibition @ 1 uM (NF-κB; 1 uM, luciferase in HEK/NF-κB cells, as described in Example 398)	AP-1 inhibition @ 1 uM (AP-1; 1 uM, luciferase in HEK/AP-1 cells, as described in Example 398)	luciferase expression under the control of the FGF 5′UTR (eIF4E; 1.0 μM, 48 h, FaDu UTR cells, normalized to DMSO (FIG. 8))	inhibition of luciferase activity (FGF 5′UTR) (eIF4E; highest concentration tested)
–	COc1ccc(-n2c(-c3sc(Nc4ccc(Cl)cc4)nc3-c3ccccc3)nc3ccccc3c2=O)cc1 [Example 225, 2-[2-(4-Chloro-phenylamino)-4-phenyl-thiazol-5-yl]-3-(4-methoxyphenyl)-3H-quinazolin-4-one]	capable of inhibiting	–	–	–	–	–	–	–	–	–
–	CNc1nc(C)c(-c2nc3ccccc3c(=O)n2-c2ccc(Cl)cc2)s1 [Example 244, 2-(4-Methyl-2-methylamino-thiazol-5-yl)-3-(4-chloro-phenyl)-3H-quinazolin-4-one]	–	0%	87** %	25%	28%	70# %	–	–	–	–
< 100 nM	Bis-[2-(4-Chloro-phenylamino)-4-benzayl-thiazole-5-yl]-methanone [Example 134]	capable of inhibiting	–	–	–	–	–	67.87	72.77	inhibited luciferase expression	> 60%
